Data: patent US20170304286A1 (LAUNX BIOMEDICAL CO., LTD., priority 2014, published 2017)
Several values for one entry are separate records, joined by “and”; a condition that tells them apart may be missing. Equal entries are not always repeated. Where two headings read alike, the source gives them in different places.

Key:
[1] = system: pancreatic cancer cells; assay: Summary of cell viability, pancreatic cancer; type: cell-based; details: 72 h, read-out: Inhibitory effect
Procedure: (§1) Removing the original culture medium from 96-well plate. Then add 100 μl of commercially drug at a concentration of 10 μM per well. After 72 hours, add the diluted WST-1 reagent to the well with 100 μl/well, and the diluted WST-1 reagent was acquired from the dilution of 9:1 medium and WST-1 stock reagent. Finally, the total volume of each well was 200 μl/well. Culture the 96-well plate at 37° C. for 30 to 90 minutes. Detecting and calculate the survival rate of each cancer cells with an ELISA reader at OD450 nm.

[2] = system: colorectal cancer cells; assay: Summary of cell viability, colorectal cancer; type: cell-based; details: 72 h, read-out: Inhibitory effect
Procedure: as §1

[3] = system: gastric cancer cells (AGS); assay: Animal model test of gastric cancer, tumor size; type: in vivo, mice
Procedure: In this invention, the female mice were (BALB/cAnN.Cg-Foxn1^nu/CrlNarl) purchased from National Laboratory Animal Center (Taiwan). The weight of the mice were 21±1 g. These mice were subcutaneously injected with gastric cancer cells (AGS) and then put these mice into different cage sat random. The drug test experiment was divided into three groups, include “control group”, “low dose group (100 mg/kg/day)”, and “high dose group (200 mg/kg/day)”. These mice were then injected test drug intraperitoneally once daily […]. The tumor sizes and body weight were measured twice a week. The tumor sizes were measured and calculated by formula: (L×W^2)/2. L represents the tumor longest length. W represents the tumor shortest diameter.

[4] = WST-1 cell viability, normal kidney cell line HEK293; type: cell-based; details: human, HEK293 normal kidney cells
Procedure: (§2) The cell numbers were counted and reseed as 2×10^6 in culture plate/flask. Then, the culture medium were added to a volume of 10 ml, and the cells were cultured for 2-3 days. Then, the cells were suspended for loading into 96-well plates. The number of cells was 3000 and the volume of the culture medium was 100 μl each well.
as §1

[5] = system: LNCap; assay: WST-1 cell viability, prostate cancer cell line LNCap; type: cell-based; details: Homo sapiens, 72 h
Procedure: as §2, §1

[6] = system: BxPC-3; assay: WST-1 cell viability, pancreatic cancer cell line BxPC-3; type: cell-based; details: Homo sapiens
Procedure: as §2, §1

[7] = system: A375 (amelanotic melanoma); assay: WST-1 cell viability, skin cancer cell line A375; type: cell-based; details: Homo sapiens
Procedure: as §2, §1

[8] = Animal model test of gastric cancer, body weight and survival of mice; type: in vivo; details: for weight: mice A, B, C
Procedure: In this invention, the female mice were (BALB/cAnN.Cg-Foxn1^nu/CrlNarl) purchased from National Laboratory Animal Center (Taiwan). The weight of the mice were 21±1 g. These mice were subcutaneously injected with gastric cancer cells (AGS) and then put these mice into different cage sat random. The drug test experiment was divided into three groups, include “control group”, “low dose group (100 mg/kg/day)”, and “high dose group (200 mg/kg/day)”. These mice were then injected test drug intraperitoneally once daily until the tumor size reached 100 mm^3. The tumor sizes and body weight were measured twice a week. The tumor sizes were measured and calculated by formula: (L×W^2)/2. L represents the tumor longest length. W represents the tumor shortest diameter.

[9] = system: bladder cancer cells; assay: Summary of cell viability, bladder cancer; type: cell-based; details: 72 h, read-out: Inhibitory effect
Procedure: as §1

[10] = system: PC-3; assay: WST-1 cell viability, prostate cancer cell line PC-3; type: cell-based; details: Homo sapiens
Procedure: as §2, §1

[11] = system: ovarian cancer cells; assay: Summary of cell viability, ovarian cancer; type: cell-based; details: 72 h, read-out: Inhibitory effect
Procedure: as §1

[12] = system: cervical cancer cells; assay: Summary of cell viability, cervical cancer; type: cell-based; details: 72 h, read-out: Inhibitory effect
Procedure: as §1

[13] = system: HeLa (CervixAdenocarcinoma); assay: WST-1 cell viability, cervical cancer cell line HeLa; type: cell-based; details: Homo sapiens, 72 h
Procedure: as §2, §1

[14] = system: prostate cancer cells; assay: Summary of cell viability, prostate cancer; type: cell-based; details: 72 h, read-out: Inhibitory effect
Procedure: as §1

[15] = 100 mg/kg/day i.p., Fifth measurement
[16] = 100 mg/kg/day i.p., Fifth measurement, mice A, B, C
[17] = 100 mg/kg/day i.p., First measurement
[18] = 100 mg/kg/day i.p., First measurement, mice A, B, C
[19] = 100 mg/kg/day i.p., Fourth measurement
[20] = 100 mg/kg/day i.p., Fourth measurement, mice A, B, C
[21] = 100 mg/kg/day i.p., Second measurement
[22] = 100 mg/kg/day i.p., Second measurement, mice A, B, C
[23] = 100 mg/kg/day i.p., Third measurement
[24] = 100 mg/kg/day i.p., Third measurement, mice A, B, C
[25] = 200 mg/kg/day i.p., Fifth measurement
[26] = 200 mg/kg/day i.p., Fifth measurement, mice A, B, C
[27] = 200 mg/kg/day i.p., First measurement
[28] = 200 mg/kg/day i.p., First measurement, mice A, B, C
[29] = 200 mg/kg/day i.p., Fourth measurement
[30] = 200 mg/kg/day i.p., Fourth measurement, mice A, B, C
[31] = 200 mg/kg/day i.p., Second measurement
[32] = 200 mg/kg/day i.p., Second measurement, mice A, B, C
[33] = 200 mg/kg/day i.p., Third measurement
[34] = both low dose and high dose, FIG. 2
[35] = average of 4 tests, read-out: survival rate (inhibition effect), Average

Fc1ccc([C@@H]2CCNC[C@H]2COc2ccc3c(c2)OCO3)cc1 [Paroxetine]
viability at 10 µM [1]: 77.4%
viability at 10 µM [2]: 43.2%
Tumor volume growth, average [3, 15]: −8.333 mm3
volume, average [3, 15]: 63.333 mm3
longest length [3, 16]: 6 mm and 4 mm
width [3, 16]: 6 mm and 5 mm and 4 mm
Tumor volume growth, average [3, 17]: 113.1667 mm3
volume, average [3, 17]: 113.1667 mm3
Tumor volume growth [3, 18]: 87.5 mm3 and 144 mm3 and 108 mm3
longest length [3, 18]: 7 mm and 8 mm and 6 mm
volume [3, 18]: 87.5 mm3 and 144 mm3 and 108 mm3
width [3, 18]: 5 mm and 6 mm
Tumor volume growth, average [3, 19]: −18.167 mm3
volume, average [3, 19]: 71.667 mm3
longest length [3, 20]: 6 mm and 4 mm
width [3, 20]: 6 mm and 4 mm and 5 mm
Tumor volume growth, average [3, 21]: −4.167 mm3
volume, average [3, 21]: 109 mm3
longest length [3, 22]: 6 mm and 7 mm
volume [3, 22]: 75 mm3 and 126 mm3
width [3, 22]: 5 mm and 6 mm
Tumor volume growth, average [3, 23]: −19.167 mm3
volume, average [3, 23]: 89.833 mm3
longest length [3, 24]: 7 mm
width [3, 24]: 6 mm and 4 mm and 5 mm
Tumor volume growth, average [3, 25]: 0 mm3
volume, average [3, 25]: 0 mm3
Tumor volume growth [3, 26]: 0 mm3
longest length [3, 26]: 0 mm
volume [3, 26]: 0 mm3
width [3, 26]: 0 mm
Tumor volume growth, average [3, 27]: 78.5 mm3
volume, average [3, 27]: 78.5 mm3
longest length [3, 28]: 6 mm and 8 mm and 7 mm
width [3, 28]: 4 mm and 5 mm
Tumor volume growth, average [3, 29]: −13.33 mm3
volume, average [3, 29]: 0 mm3
longest length [3, 30]: 0 mm
volume [3, 30]: 0 mm3
width [3, 30]: 0 mm
Tumor volume growth, average [3, 31]: −25.8333 mm3
volume, average [3, 31]: 52.67 mm3
longest length [3, 32]: 6 mm and 5 mm and 7 mm
width [3, 32]: 4 mm and 3 mm and 5 mm
Tumor volume growth, average [3, 33]: −39.33 mm3
volume, average [3, 33]: 13.333 mm3
inhibition effect on tumor cells [3, 34]: significant inhibition effect
Tumor volume growth ([3]; both low dose and high dose, FIG. 3): effectively slow down the tumor volume growth
inhibition of tumor growth, high doses compared with low ([3]; high doses, FIG. 3): better effect to inhibit tumor growth
viability at 72 h, 10 µM ([4]; HEK293, average of 4 tests, read-out: survival rate (inhibition effect), Average): 71.4%
viability at 72 h, 10 µM ([4]; HEK293, run 0602-30 min, read-out: survival rate (inhibition effect)): 64.9%
viability at 72 h, 10 µM ([4]; HEK293, run 0605-30 min, read-out: survival rate (inhibition effect)): 76.8%
viability at 72 h, 10 µM ([4]; HEK293, run 0607-30 min, read-out: survival rate (inhibition effect)): 76%
viability at 72 h, 10 µM ([4]; HEK293, run 0609-30 min, read-out: survival rate (inhibition effect)): 67.8%
viability at 72 h, 10 µM ([4]; summary, kidney cell, read-out: Inhibitory effect): 71.4%
viability at 10 µM [5, 35]: 71.7%
viability at 10 µM ([5]; run LNCap-1-10 min, read-out: survival rate (inhibition effect)): 65.9%
viability at 10 µM ([5]; run LNCap-2-20 min, read-out: survival rate (inhibition effect)): 61.7%
viability at 10 µM ([5]; run LNCap-3-20 min, read-out: survival rate (inhibition effect)): 80.9%
viability at 10 µM ([5]; run LNCap-4-20 min, read-out: survival rate (inhibition effect)): 78.3%
viability at 10 µM ([6]; BXPC-3, 72 h, BxPC-3, average of 4 tests, read-out: survival rate (inhibition effect), Average): 77.7%
viability at 10 µM ([6]; BXPC-3, BxPC-3, 72 h, run 3-4-30 min, read-out: survival rate (inhibition effect)): 87%
viability at 10 µM ([6]; BXPC-3, BxPC-3, 72 h, run 3-7-3-30 min, read-out: survival rate (inhibition effect)): 59.7%
viability at 10 µM ([6]; BXPC-3, BxPC-3, 72 h, run 3-7-4-30 min, read-out: survival rate (inhibition effect)): 93.7%
viability at 10 µM ([7]; A-375, 72 h, A375, average of 4 tests, read-out: survival rate (inhibition effect), Average): 43.8%
viability at 10 µM ([7]; A-375, A375, 72 h, run 0602-30 min, read-out: survival rate (inhibition effect)): 46.8%
viability at 10 µM ([7]; A-375, A375, 72 h, run 0605-10 min, read-out: survival rate (inhibition effect)): 44.4%
viability at 10 µM ([7]; A-375, A375, 72 h, run 0607-10 min, read-out: survival rate (inhibition effect)): 35.4%
viability at 10 µM ([7]; A-375, A375, 72 h, run 0609-10 min, read-out: survival rate (inhibition effect)): 48.8%
weight [8, 15]: 22 g and 20 g
weight [8, 17]: 19 g and 18 g
weight [8, 19]: 22 g and 20 g
weight [8, 21]: 19 g and 21 g and 20 g
weight [8, 23]: 20.5 g and 23.5 g and 19 g
weight [8, 25]: 21 g and 20 g
weight [8, 27]: 19 g and 18.5 g and 20 g
weight [8, 29]: 20 g and 21 g
weight [8, 31]: 20 g and 23 g
weight [8, 33]: 19 g and 18.5 g
health status / death of tested mice during the treatment ([8]; both high and low doses): without death
weight of mice during the experiment [8, 34]: did not show a significant decrease
viability at 10 µM [9]: 69.1%
viability at 10 µM ([10]; PC-3, 72 h, PC-3, average of 4 tests, read-out: survival rate (inhibition effect), Average): 44.1%
viability at 10 µM ([10]; PC-3, PC-3, 72 h, run PC-3-0524-10 min, read-out: survival rate (inhibition effect)): 33.5%
viability at 10 µM ([10]; PC-3, PC-3, 72 h, run PC-3-0526-10 min, read-out: survival rate (inhibition effect)): 61.6%
viability at 10 µM ([10]; PC-3, PC-3, 72 h, run PC-3-0529-10 min, read-out: survival rate (inhibition effect)): 39.3%
viability at 10 µM ([10]; PC-3, PC-3, 72 h, run PC-3-0531-10 min, read-out: survival rate (inhibition effect)): 41.8%
viability at 10 µM [11]: 86.5%
viability at 10 µM [12]: 63.8%
viability at 10 µM [13, 35]: 63.8%
viability at 10 µM ([13]; run 0524-10 min, read-out: survival rate (inhibition effect)): 52.6%
viability at 10 µM ([13]; run 0526-10 min, read-out: survival rate (inhibition effect)): 78.3%
viability at 10 µM ([13]; run 0529-10 min, read-out: survival rate (inhibition effect)): 51%
viability at 10 µM ([13]; run 0531-10 min, read-out: survival rate (inhibition effect)): 73.4%
viability at 10 µM [14]: 44.1%
